Data published in patent publication US11780840B2 (Incyte Corporation, priority 2020, dated 2023).

Legend:
[1] = target: T1, catalytic domain (JH1, amino acids 826-1132) of human JAK2 (Homo sapiens, UniProt O60674); assay: JAK2 LanthaScreen JH1 Binding Assay; conditions: JAK2 JH1 (1.5 nM), 50 nM fluorescent JAK2-JH1 tracer, 2 hours at 25° C.; read-out: JH1 BIND
T1 construct: catalytic domain (JH1, amino acids 826-1132) of human JAK2; FLAG (N); purchased Carna Biosciences 08-445-20N; host or cells: baculovirus expression system
In short: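 TR-FRET tracer-displacement format: compound IC50 from four-parameter curves after 2 h at 25° C. Reaction held 1.5 nM biotinylated, FLAG-tagged JH1 (aa 826-1132), 50 nM tracer, 0.5 nM Streptavidin-Tb, pH 7.5 Tris buffer; 2 mM ATP set nonspecific background.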

[2] = target: T2, pseudo-kinase domain (JH2, amino-acids 536-812 with 3 surface mutations W659A, W777A, F794H) of human Wild Type JAK2 (Homo sapiens, UniProt O60674, F794H/W659A/W777A); assay: JAK2 LanthaScreen JH2-WT Binding Assay; conditions: JAK2 JH2-WT (0.145 nM), 50 nM Fluorescent JAK2-JH2 Tracer, 1 hour at 25° C.; read-out: JH2 BIND WT
T2 construct: pseudo-kinase domain (JH2, amino-acids 536-812 with 3 surface mutations W659A, W777A, F794H); His (C); Avi (biotinylated) (C); purchased BPS Bioscience 79463; host or cells: baculovirus expression system
In short: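 Compounds, serially diluted, were mixed with 0.145 nM JH2 domain, 50 nM tracer and 0.25 nM streptavidin-Tb cryptate, then incubated 1 hour at 25° C before LanthaScreen reading. Wells containing 2 mM ATP defined non-specific binding. Four-parameter dose-response curves gave IC50.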

[3] = target: T3, pseudo-kinase domain (JH2, amino-acids 536-812 with 3 surface mutations W659A, W777A, F794H) of human V617F mutant JAK2 (Homo sapiens, UniProt O60674, F794H/V617F/W659A/W777A); assay: JAK2 LanthaScreen JH2-V617F Binding Assay; conditions: JAK2 JH2-V617F (0.26 nM), 50 nM Fluorescent JAK2-JH2 Tracer, 1 hour at 25° C.; read-out: JH2 BIND V617F
T3 construct: pseudo-kinase domain (JH2, amino-acids 536-812 with 3 surface mutations W659A, W777A, F794H); His (C); Avi (biotinylated) (C); purchased BPS Bioscience 79498; host or cells: baculovirus expression system
In short: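 Serially diluted compounds are mixed with 0.26 nM protein, 50 nM fluorescent JAK2-JH2 tracer and 0.25 nM terbium-labelled streptavidin, then incubated 1 h at 25° C. LanthaScreen signal is read, and IC50 is fitted.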

T2 sequence (O60674 536-812 W659A/W777A/F794H): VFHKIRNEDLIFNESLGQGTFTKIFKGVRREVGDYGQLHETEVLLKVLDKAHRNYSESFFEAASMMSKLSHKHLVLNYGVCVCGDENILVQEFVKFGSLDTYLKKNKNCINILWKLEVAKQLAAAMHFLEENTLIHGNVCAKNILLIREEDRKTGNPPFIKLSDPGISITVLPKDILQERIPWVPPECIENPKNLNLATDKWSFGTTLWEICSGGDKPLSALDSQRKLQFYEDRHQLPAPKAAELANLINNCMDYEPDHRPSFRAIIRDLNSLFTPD
T3 sequence (O60674 536-812 V617F/W659A/W777A/F794H): as the sequence (O60674 536-812 W659A/W777A/F794H) above, with V82F counted along it
T1 sequence (O60674 826-1132): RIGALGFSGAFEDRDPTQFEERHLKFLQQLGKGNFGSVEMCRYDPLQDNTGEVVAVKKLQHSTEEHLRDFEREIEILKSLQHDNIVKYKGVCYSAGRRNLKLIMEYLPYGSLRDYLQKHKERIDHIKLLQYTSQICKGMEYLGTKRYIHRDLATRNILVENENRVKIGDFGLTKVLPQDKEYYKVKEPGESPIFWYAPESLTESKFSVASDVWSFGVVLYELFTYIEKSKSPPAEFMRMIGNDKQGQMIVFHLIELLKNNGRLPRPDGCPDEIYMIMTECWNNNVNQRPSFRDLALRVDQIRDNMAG

For CC(C)n1c(=O)n(C)c2cnc3[nH]c(-c4cnn(CC(C)(C)O)c4)c(-c4cc5cnc(N6CCNCC6)cc5s4)c3c21 [Example 80, 7-(1-(2-Hydroxy-2-methylpropyl)-1H-pyrazol-4-yl)-1-isopropyl-3-methyl-8-(6-(piperazin-1-yl)thieno[3,2-c]pyridin-2-yl)-3,6-dihydroimidazo[4,5-d]pyrrolo[2,3-b]pyridin-2(1H)-one], which IC50 [1] is on record?
Its IC50 is 100 to 500 nM.

And the IC50 [2]?
The IC50 was at most 10 nM.

What about the IC50 [3] of the same compound?
The IC50 was at most 10 nM.

With CC(=O)N1CCN(c2cc3sc(-c4c(-c5cnn(CC(C)(C)O)c5)[nH]c5ncc6c(c45)n(C(C)C)c(=O)n6C)cc3cn2)CC1 [Example 81, 8-(6-(4-Acetylpiperazin-1-yl)thieno[3,2-c]pyridin-2-yl)-7-(1-(2-hydroxy-2-methylpropyl)-1H-pyrazol-4-yl)-1-isopropyl-3-methyl-3,6-dihydroimidazo[4,5-d]pyrrolo[2,3-b]pyridin-2(1H)-one] as the compound, how does the IC50 [1] read?
The IC50 was over 1000 nM.

What about the IC50 [2] of the same compound?
Its IC50 is at most 10 nM.

What about the IC50 [3] of the same compound?
The IC50 was 10 to 100 nM.

Which IC50 [1] does the source give for CC(C)n1c(=O)n(C)c2cnc3[nH]c(-c4cnn(CC(C)(C)O)c4)c(-c4cc5c(s4)CCNC5)c3c21 [Example 82, 7-(1-(2-Hydroxy-2-methylpropyl)-1H-pyrazol-4-yl)-1-isopropyl-3-methyl-8-(4,5,6,7-tetrahydrothieno[3,2-c]pyridin-2-yl)-3,6-dihydroimidazo[4,5-d]pyrrolo[2,3-b]pyridin-2(1H)-one] here?
The IC50 was over 1000 nM.

And the IC50 [2]?
Its IC50 is 100 to 500 nM.

What about the IC50 [3] of the same compound?
Its IC50 is 500 to 1000 nM.

What does the source list for CC(C)n1c(=O)n(C)c2cnc3[nH]c(-c4cnn(CC(C)(C)O)c4)c(-c4cc5c(s4)CCN(S(C)(=O)=O)C5)c3c21 [Example 83, 7-(1-(2-Hydroxy-2-methylpropyl)-1H-pyrazol-4-yl)-1-isopropyl-3-methyl-8-(5-(methylsulfonyl)-4,5,6,7-tetrahydrothieno[3,2-c]pyridin-2-yl)-3,6-dihydroimidazo[4,5-d]pyrrolo[2,3-b]pyridin-2(1H)-one]?
IC50 [1]: > 1000 nM; IC50 [2]: ≤ 10 nM; IC50 [3]: 10 to 100 nM

For Cc1cn2cc(-c3c(-c4cnn(CC(C)(C)O)c4)[nH]c4ncc5c(c34)n(C(C)C)c(=O)n5C)cc2cn1 [Example 84, 7-(1-(2-Hydroxy-2-methylpropyl)-1H-pyrazol-4-yl)-1-isopropyl-3-methyl-8-(3-methylpyrrolo[1,2-a]pyrazin-7-yl)-3,6-dihydroimidazo[4,5-d]pyrrolo[2,3-b]pyridin-2(1H)-one], which IC50 [1] is on record?
Its IC50 is over 1000 nM.

What about the IC50 [2] of the same compound?
Its IC50 is at most 10 nM.

And the IC50 [3]?
The IC50 was at most 10 nM.

For CC(C)n1c(=O)n(C)c2cnc3[nH]c(-c4cnn(CC(C)(C)O)c4)c(-c4ccn5cncc5c4)c3c21 [Example 85, 7-(1-(2-Hydroxy-2-methylpropyl)-1H-pyrazol-4-yl)-8-(imidazo[1,5-a]pyridin-7-yl)-1-isopropyl-3-methyl-3,6-dihydroimidazo[4,5-d]pyrrolo[2,3-b]pyridin-2(1H)-one], which IC50 [1] is on record?
Its IC50 is over 1000 nM.

What about the IC50 [2] of the same compound?
The IC50 was at most 10 nM.

What about the IC50 [3] of the same compound?
The IC50 was 10 to 100 nM.

How did the IC50 [1] turn out when CC(C)n1c(=O)n(C)c2cnc3[nH]c(-c4cnn(CC(C)(C)O)c4)c(-c4ccc5c(c4)CCC5O)c3c21 (stereo not drawn) [Example 86, 8-(1-Hydroxy-2,3-dihydro-1H-inden-5-yl)-7-(1-(2-hydroxy-2-methylpropyl)-1H-pyrazol-4-yl)-1-isopropyl-3-methyl-3,6-dihydroimidazo[4,5-d]pyrrolo[2,3-b]pyridin-2(1H)-one] was run?
Its IC50 is over 1000 nM.

And the IC50 [2]?
The IC50 was at most 10 nM.

What about the IC50 [3] of the same compound?
The IC50 was 10 to 100 nM.

How did the IC50 [1] turn out when CC(C)n1c(=O)n(C)c2cnc3[nH]c(-c4cnn(CC(C)(C)O)c4)c(-c4ccc(COC5CCOCC5)cc4)c3c21 [Example 87, 7-(1-(2-Hydroxy-2-methylpropyl)-1H-pyrazol-4-yl)-1-isopropyl-3-methyl-8-(4-(((tetrahydro-2H-pyran-4-yl)oxy)methyl)phenyl)-3,6-dihydroimidazo[4,5-d]pyrrolo[2,3-b]pyridin-2(1H)-one] was run?
Its IC50 is over 1000 nM.

What about the IC50 [2] of the same compound?
Its IC50 is at most 10 nM.

And the IC50 [3]?
The IC50 was at most 10 nM.

CC(C)n1c(=O)n(C)c2cnc3[nH]c(-c4cnn(CC(C)(C)O)c4)c(C45CCNCC4C5)c3c21 (stereo not drawn) [Example 88, 8-(3-Azabicyclo[4.1.0]heptan-6-yl)-7-(1-(2-hydroxy-2-methylpropyl)-1H-pyrazol-4-yl)-1-isopropyl-3-methyl-3,6-dihydroimidazo[4,5-d]pyrrolo[2,3-b]pyridin-2(1H)-one] was tested. Which IC50 [1] did it give?
Its IC50 is over 1000 nM.

And the IC50 [2]?
Its IC50 is at most 10 nM.

What about the IC50 [3] of the same compound?
Its IC50 is 10 to 100 nM.

Which results are given for CN(C)C(=O)c1ccc(-c2[nH]c3ncc4c(c3c2-c2ccc3c(cnn3C)c2)n(C2CCCC2)c(=O)n4C)cc1 [Example 89, 4-(1-Cyclopentyl-3-methyl-8-(1-methyl-1H-indazol-5-yl)-2-oxo-1,2,3,6-tetrahydroimidazo [4,5-d]pyrrolo[2,3-b]pyridin-7-yl)-N,N-dimethylbenzamide]?
IC50 [1]: 500 to 1000 nM; IC50 [2]: ≤ 10 nM; IC50 [3]: ≤ 10 nM

For Cn1ncc2cc(-c3c(-c4cnn5cccnc45)[nH]c4ncc5c(c34)n(C3CCOCC3)c(=O)n5C)ccc21 [Example 90, 3-Methyl-8-(1-methyl-1H-indazol-5-yl)-7-(pyrazolo[1,5-a]pyrimidin-3-yl)-1-(tetrahydro-2H-pyran-4-yl)-3,6-dihydroimidazo[4,5-d]pyrrolo[2,3-b]pyridin-2(1H)-one], which IC50 [1] is on record?
Its IC50 is over 1000 nM.

What about the IC50 [2] of the same compound?
The IC50 was at most 10 nM.

And the IC50 [3]?
The IC50 was at most 10 nM.

What does the source list for COc1nn(C)cc1-c1[nH]c2ncc3c(c2c1-c1ccc2c(cnn2C)c1)n(C1CCOCC1)c(=O)n3C [Example 91, 7-(3-methoxy-1-methyl-1H-pyrazol-4-yl)-3-methyl-8-(1-methyl-1H-indazol-5-yl)-1-(tetrahydro-2H-pyran-4-yl)-3,6-dihydroimidazo[4,5-d]pyrrolo[2,3-b]pyridin-2(1H)-one]?
IC50 [1]: > 1000 nM; IC50 [2]: ≤ 10 nM; IC50 [3]: ≤ 10 nM

Which results are given for Cn1ncc2cc(-c3c(-c4cnn5c4CCC5)[nH]c4ncc5c(c34)n(C3CCOCC3)c(=O)n5C)ccc21 [Example 92, 7-(5,6-Dihydro-4H-pyrrolo[1,2-b]pyrazol-3-yl)-3-methyl-8-(1-methyl-1H-indazol-5-yl)-1-(tetrahydro-2H-pyran-4-yl)-3,6-dihydroimidazo[4,5-d]pyrrolo[2,3-b]pyridin-2(1H)-one]?
IC50 [1]: > 1000 nM; IC50 [2]: ≤ 10 nM; IC50 [3]: ≤ 10 nM

What does the source list for Cn1ncc2cc(-c3c(C(O)C4CC4)[nH]c4ncc5c(c34)n(C3CCOCC3)c(=O)n5C)ccc21 (stereo not drawn) [Example 95, 7-(Cyclopropyl(hydroxy)methyl)-3-methyl-8-(1-methyl-1H-indazol-5-yl)-1-(tetrahydro-2H-pyran-4-yl)-3,6-dihydroimidazo[4,5-d]pyrrolo[2,3-b]pyridin-2(1H)-one]?
IC50 [1]: > 1000 nM; IC50 [2]: ≤ 10 nM; IC50 [3]: 10 to 100 nM

With CC(C)n1c(=O)n(C)c2cnc3[nH]c(Cc4ccc(C#N)cc4)c(-c4ccc5c(cnn5C)c4)c3c21 [Example 96, 4-((1-Isopropyl-3-methyl-8-(1-methyl-1H-indazol-5-yl)-2-oxo-1,2,3,6-tetrahydroimidazo [4,5-d]pyrrolo[2,3-b]pyridin-7-yl)methyl) benzonitrile] as the compound, how does the IC50 [1] read?
Its IC50 is over 1000 nM.

What about the IC50 [2] of the same compound?
The IC50 was over 1000 nM.

And the IC50 [3]?
Its IC50 is over 1000 nM.

For CCc1[nH]c2ncc3c(c2c1-c1ccc2c(cnn2C)c1)n(C1CCCC1)c(=O)n3C [Example 97, 1-Cyclopentyl-7-ethyl-3-methyl-8-(1-methyl-1H-indazol-5-yl)-3,6-dihydroimidazo[4,5-d]pyrrolo[2,3-b]pyridin-2(1H)-one], which IC50 [1] is on record?
The IC50 was over 1000 nM.

What about the IC50 [2] of the same compound?
Its IC50 is 10 to 100 nM.

And the IC50 [3]?
Its IC50 is 100 to 500 nM.

What does the source list for Cn1ncc2cc(-c3c(C(=O)NC4CC4)[nH]c4ncc5c(c34)n(C3CCCC3)c(=O)n5C)ccc21 [Example 98, 1-Cyclopentyl-N-cyclopropyl-3-methyl-8-(1-methyl-1H-indazol-5-yl)-2-oxo-1,2,3,6-tetrahydroimidazo [4,5-d]pyrrolo[2,3-b]pyridine-7-carboxamide]?
IC50 [1]: > 1000 nM; IC50 [2]: 10 to 100 nM; IC50 [3]: 10 to 100 nM

What does the source list for Cn1ncc2cc(-c3c(S(C)(=O)=O)[nH]c4ncc5c(c34)n(C3CCCC3)c(=O)n5C)ccc21 [Example 99, 1-Cyclopentyl-3-methyl-8-(1-methyl-1H-indazol-5-yl)-7-(methylsulfonyl)-3,6-dihydroimidazo [4,5-d]pyrrolo[2,3-b] pyridin-2(1H)-one]?
IC50 [1]: > 1000 nM; IC50 [2]: 500 to 1000 nM; IC50 [3]: 500 to 1000 nM
